This is an account of results in paper PMC3330828 (2012).

pIC50: −log10 of the molar value.

Test [1] has as its target T1, caspase-1 (Homo sapiens, UniProt P29466).
T1 sequence (P29466 120-297): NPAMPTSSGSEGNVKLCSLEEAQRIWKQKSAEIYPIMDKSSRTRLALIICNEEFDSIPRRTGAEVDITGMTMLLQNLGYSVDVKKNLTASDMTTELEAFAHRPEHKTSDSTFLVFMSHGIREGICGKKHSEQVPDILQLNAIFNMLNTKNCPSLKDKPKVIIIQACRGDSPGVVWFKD
T1 sequence (P29466 317-404): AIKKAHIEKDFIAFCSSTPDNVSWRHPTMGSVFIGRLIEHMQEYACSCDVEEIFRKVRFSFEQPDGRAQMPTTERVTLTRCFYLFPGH
The test is described as follows: in vitro fluorometric enzyme assay. The class given is biochemical.

For test [2], the target named is T2, caspase-3 (Homo sapiens, UniProt P42574).
T2 sequence (P42574 29-175): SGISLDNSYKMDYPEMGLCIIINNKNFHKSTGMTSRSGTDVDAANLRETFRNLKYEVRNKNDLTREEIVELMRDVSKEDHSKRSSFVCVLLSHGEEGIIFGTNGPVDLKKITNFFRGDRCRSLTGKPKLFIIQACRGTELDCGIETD
T2 sequence (P42574 176-277): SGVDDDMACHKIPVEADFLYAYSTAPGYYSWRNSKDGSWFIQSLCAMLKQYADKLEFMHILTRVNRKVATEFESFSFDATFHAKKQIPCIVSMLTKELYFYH
The test is described as follows: in vitro fluorometric enzyme assay. The format is biochemical.

As to berkedrimane A [compound 1], the pIC50 (as a rule, −log10 of the IC50, conventionally taken in molar units) is 4.00 in test [1] and 3.70 in test [2].

In the case of berkedrimane B [compound 2], the results for the pIC50 in test [1] and in test [2] were 4.05 and 4.30, respectively.
